Assay results from paper PMC7961380, “A Systematic Study of the In Vitro Pharmacokinetics and Estimated Human In Vivo Clearance of Indole and Indazole-3-Carboxamide Synthetic Cannabinoid Receptor Agonists Detected on the Illicit Drug Market” (Molecules, 2021).

What was measured:
[1] = cited from earlier work
in vitro = conditions: human, plasma, pH 7.4
Protocol: The pooled plasma used for both plasma stability and plasma binding studies originated from 50 donors, collected as whole blood from donors in the United States at an FDA-approved collection center, processed into plasma by centrifugation and immediately frozen (Innovative Research; Novi, MI, USA) and purchased from Patricell (Nottingham, UK). […] Stock solutions were prepared in DMSO. […] For incubations without inhibitor an equivalent volume of DMSO was included. Plasma mixture was pre-incubated at 37 °C for 5 min. Test compounds (5 µM) and procaine (positive control, 50 µM) were added to pre-warmed plasma mixture containing inhibitors. Incubation volume was 1 mL. Samples were mixed and 80 µL was immediately sampled and quenched into 200 µL ACN spiked with donepezil (internal standard (IS), 50 ng mL^−1). […] Peak area ratio of analyte to IS was used to determine half-lives of test compounds in plasma, both with and without the presence of esterase inhibitors.
The human plasma used was pooled from 50 donors, and was collected as whole blood from donors in
the United States at an FDA-approved collection center, processed into plasma by centrifugation and
The stability of the tested SCRAs, select metabolites and procaine control in pooled human plasma over
inhibitors bis(4-nitrophenyl) phosphate (BNPP) and phenyl methyl sulphonyl fluoride (PMSF) is

[2] = Chromatographic hydrophobicity index (CHI) log D at pH 7.4; conditions: reversed-phase HPLC, Acquity BEH C18 column
Protocol: Chromatographic hydrophobicity index (CHI) log D samples (see below) were analysed using high-performance liquid chromatography (HPLC) with a Shimadzu Nexera X2 HPLC coupled to a Shimadzu SPD-30 MA photodiode array detector (PDA) (Shimadzu, Kyoto, Japan). […] The sample chamber was maintained at 25 °C. Gradient elution was performed, with mobile phase (MP) consisting of ammonium acetate in water (10 mM, pH 7.4) (MP A) and acetonitrile (MP B).
A calibration mix of ten compounds at 10 µg mL^−1 in 1:1 (v/v) water:ACN was used (theophylline, phenyltetrazole, benzimidazole, colchicine, phenyltheophilline, acetophenone, indole, propiophenone, butyrophenone and valerophenone (all Sigma-Aldrich)). Test compounds were prepared at 0.25 mM in 1:1 (v/v) water:ACN. Samples (n = 2 for calibration standards; n = 1 for test compounds) were analysed using UPLC-PDA as described above. Retention times of calibration compounds are used to calculate retention factor (k), which is plotted against literature CHI values for each compound.
Where tr is the retention time of the analyte and t0 is the retention time of an unretained compound
Calculation of chromatographic hydrophobicity index (CHI)
CHI = (𝑘 x slope) − intercept Eqn.4
Where k is the retention factor of the analyte.
Calculation of CHI Log D [1]
Where CHI is the chromatographic hydrophobicity index obtained using Equation 4

[3] = Theoretical fraction unbound for hepatocytes (fuhep) from log D7.4; set-up: species or system human; conditions: calculated from experimental log D7.4 as Kilford et al. (2008), cell volume 3.9 µL/million cells
Source text: For all MDMB- compounds, and for most (S)-AMB-compounds differences in CLint were within 2.5-fold. […] There are multiple factors which can cause intrinsic clearance by HHeps to differ from HLM [89]. Differences may reflect the relative efficiency of transport of SCRAs and their enantiomers through cell membranes in HHeps and the relative abundance of particular enzymes in HLM and HHeps, targeting different sites of metabolism, particularly carboxylesterases. A dominance of non-CYP enzymes in metabolic clearance can result in CLint being faster in HHeps. […] Glucuronidation is therefore unlikely to cause the differences in clearance rates observed. […] CES-1 is one of the most abundant enzymes in human hepatocytes, present in the endoplasmic reticulum and to a lesser extent in the cytosol. Non-specific binding of drugs to microsomes and hepatocytes results in a lower unbound fraction available to interact with enzymes; differences in binding between HLM and HHep incubations may therefore also cause clearance differences. Non-specific binding may be estimated from log P data. Theoretical fraction unbound for microsomes (fumic) and hepatocytes (fuhep) was calculated using experimental pHLM and pHHep concentrations and incubation volumes, and experimental log D7.4 values, as described by Kilford et al. (2008) with hepatocyte cell volume as 3.9 µL/million cells. […]

[4] = system: human hepatocytes (HHeps); conditions: HHeps (asterisk); ref 13 (JWH-122, MAM-2201, Cl-, Br-, I-JWH-122), 105 (AM1220); cited from earlier work
[5] = set-up: method as in PMID 17712819; conditions: cited from earlier work

Row | SMILES | CLint [4] | t1/2 [4] | further results
1 | CCCCCn1cc(C(=O)c2ccc(CC)c3ccccc23)c2ccccc21 [JWH-210, 4-ethylnaphthalen-1-yl-(1-pentylindol-3-yl)methanone] |  |  | log P [1]: 7.5
2 | CCN(CC)CCOC(=O)c1ccc(N)cc1 [Procaine] |  |  | half-life (in vitro): 6.5 min; remaining at 3 h (in vitro): 0.03 ± 0.02%; remaining at 5 h (in vitro): 0.08%
3 | C=CCCCn1nc(C(=O)NC(C(=O)OC)C(C)(C)C)c2ccccc21 (stereo not shown) [MDMB-4en-PINACA (5), methyl 3,3-dimethyl-2-[1-(pent-4-en-1-yl)-1H-indazole-3-carboxamido] butanoate] |  |  | chromatographic logD [2]: 4.95; estimated fuhep (theoretical fraction unbound for hepatocytes) [3]: 0.47
4 | Cc1ccc(C(=O)c2cn(CCCCCI)c3ccccc23)c2ccccc12 [I-JWH-122, (1-(5-iodopentyl)-1H-indol-3-yl)(4-methylnaphthalen-1-yl)methanone] | 235 mL/min/kg | 5.26 min | 
5 | CN1CCCCC1Cn1cc(C(=O)c2cccc3ccccc23)c2ccccc21 (stereo not shown) [AM1220] | 169 mL/min/kg | 3.7 min | 
6 | Cc1ccc(C(=O)c2cn(CCCCCCl)c3ccccc23)c2ccccc12 [Cl-JWH-122] | 502 mL/min/kg | 2.46 min | 
7 | Cc1ccc(C(=O)c2cn(CCCCCF)c3ccccc23)c2ccccc12 [MAM-2201] | 1408 mL/min/kg | 0.88 min | 
8 | CCCCCc1cc(O)c2c(c1)OC(C)(C)[C@@H]1CCC(C)=C[C@@H]21 [THC, Δ9-tetrahydrocannabinol] |  |  | protein-bound in plasma [5]: 95–99%; log P [1]: 6.7
